Source: ChEMBL document CHEMBL1909046, “DrugMatrix in vitro pharmacology data”
Where a SMILES comes first, the peptide text is derived from it. Bridges are numbered along the chain shown (N, C = ends). [ ]: non-standard residue; d: D form. The star is where a group is joined. Threoninol(2S,3R) = C[C@@H](O)[C@H](CO)N*

Assays:
[1] = DRUGMATRIX: Phosphodiesterase PDE4 enzyme inhibition (substrate: [3H]cAMP + cAMP); settings: u-937; Not Active = under 50% inhibition at 10 µM
[2] = DRUGMATRIX: GABAA, Flunitrazepam, Central radioligand binding (ligand: [3H] Flunitrazepam); type: cell membranes, Rattus norvegicus, Wistar, Brain, Membrane; settings: Not Active = under 50% inhibition at 10 µM
[3] = molecular target: T1, 5-hydroxytryptamine receptor 1A (Rattus norvegicus, UniProt P19327); type: cell membranes, Membrane; settings: cho-k1; also: in other assays of this panel Not Active means under 50% inhibition at 10 µM
T1 sequence (P19327 whole entry): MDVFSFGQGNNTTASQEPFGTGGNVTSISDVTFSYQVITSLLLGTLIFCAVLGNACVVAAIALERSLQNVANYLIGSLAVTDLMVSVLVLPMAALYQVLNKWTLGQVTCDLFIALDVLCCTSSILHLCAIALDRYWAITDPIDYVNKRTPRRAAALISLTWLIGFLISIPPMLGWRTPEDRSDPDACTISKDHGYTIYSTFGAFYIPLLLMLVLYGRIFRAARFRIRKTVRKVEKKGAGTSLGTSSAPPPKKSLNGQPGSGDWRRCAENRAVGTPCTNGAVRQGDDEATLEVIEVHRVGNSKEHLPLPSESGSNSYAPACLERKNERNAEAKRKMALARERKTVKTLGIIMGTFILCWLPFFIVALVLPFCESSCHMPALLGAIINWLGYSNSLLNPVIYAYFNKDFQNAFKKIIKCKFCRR

[4] = molecular target: T2, Neuropeptide Y receptor type 2 (Homo sapiens, UniProt P49146); type: cell membranes, Membrane; settings: kan-ts; also: in other assays of this panel Not Active means under 50% inhibition at 10 µM
T2 sequence (P49146 whole entry): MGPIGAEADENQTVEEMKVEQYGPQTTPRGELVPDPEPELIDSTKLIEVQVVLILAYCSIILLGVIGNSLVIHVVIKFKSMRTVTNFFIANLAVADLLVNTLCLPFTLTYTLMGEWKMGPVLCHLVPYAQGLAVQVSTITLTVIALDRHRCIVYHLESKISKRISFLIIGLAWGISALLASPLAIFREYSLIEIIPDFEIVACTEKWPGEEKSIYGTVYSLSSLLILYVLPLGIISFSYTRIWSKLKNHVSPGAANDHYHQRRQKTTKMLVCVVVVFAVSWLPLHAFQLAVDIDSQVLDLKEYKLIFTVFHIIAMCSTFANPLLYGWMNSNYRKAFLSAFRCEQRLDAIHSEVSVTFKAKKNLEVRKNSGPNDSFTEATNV

Neutrophil elastase = molecular target: T3, Neutrophil elastase (Homo sapiens, UniProt P08246); type: tissue-based;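 also: inhibition of neutrophil elastase enzyme activity, measured with a p-nitroanilide-linked peptide substrate; in other assays of this panel Not Active means under 50% inhibition at 10 µM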
T3 sequence (P08246 whole entry): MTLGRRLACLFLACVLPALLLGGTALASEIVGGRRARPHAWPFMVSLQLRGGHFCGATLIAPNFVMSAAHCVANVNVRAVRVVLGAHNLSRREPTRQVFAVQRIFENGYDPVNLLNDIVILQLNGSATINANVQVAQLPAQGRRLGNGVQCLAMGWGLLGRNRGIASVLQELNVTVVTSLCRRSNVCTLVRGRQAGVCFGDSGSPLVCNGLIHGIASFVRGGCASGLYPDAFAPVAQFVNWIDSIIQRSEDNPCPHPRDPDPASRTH

[5] = DRUGMATRIX: GABAA, Chloride Channel, TBOB radioligand binding (ligand: [3H] TBOB); type: cell membranes, Rattus norvegicus, Wistar, Cerebral cortex, Membrane; settings: Not Active = under 50% inhibition at 10 µM
[6] = DRUGMATRIX: Calcium Channel Type L, Dihydropyridine radioligand binding (ligand: [3H] Nitrendipine); type: cell membranes, Rattus norvegicus, Wistar, Cerebral cortex, Membrane; settings: Not Active = under 50% inhibition at 10 µM
[7] = molecular target: T4, Muscarinic acetylcholine receptor M5 (Homo sapiens, UniProt P08912); type: cell membranes, CHO-K1, Membrane; settings: cho-k1; also: in other assays of this panel Not Active means under 50% inhibition at 10 µM
T4 sequence (P08912 whole entry): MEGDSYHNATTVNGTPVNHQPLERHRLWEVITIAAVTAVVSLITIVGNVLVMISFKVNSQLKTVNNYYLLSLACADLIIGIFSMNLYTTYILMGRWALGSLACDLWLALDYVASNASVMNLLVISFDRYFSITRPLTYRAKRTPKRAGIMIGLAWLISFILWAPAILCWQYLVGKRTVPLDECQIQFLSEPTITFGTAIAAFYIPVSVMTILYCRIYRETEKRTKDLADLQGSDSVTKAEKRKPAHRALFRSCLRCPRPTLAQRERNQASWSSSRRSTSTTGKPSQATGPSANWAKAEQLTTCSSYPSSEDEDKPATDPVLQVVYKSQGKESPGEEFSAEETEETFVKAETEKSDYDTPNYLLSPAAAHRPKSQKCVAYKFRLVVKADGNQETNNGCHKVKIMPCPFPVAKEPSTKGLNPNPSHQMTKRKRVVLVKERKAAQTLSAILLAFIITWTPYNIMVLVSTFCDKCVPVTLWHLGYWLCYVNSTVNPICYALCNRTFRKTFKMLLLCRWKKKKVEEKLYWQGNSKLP

COc1ccccc1C(=O)N1CCC(Cc2ccccc2)CC1
Not Active: IC50 [1] | Ki [1] | IC50 [2] | Ki [2] | IC50 [3] | IC50 [4] | IC50 (Neutrophil elastase) | IC50 [5] | Ki [5] | IC50 [6] | Ki [6] | IC50 [7]

Cc1ccccc1C(=O)N1CCC(Cc2ccccc2)CC1
Not Active: IC50 [1] | Ki [1] | IC50 [2] | Ki [2] | IC50 [3] | IC50 [4] | IC50 (Neutrophil elastase) | IC50 [5] | Ki [5] | IC50 [6] | Ki [6] | IC50 [7]

O=C1CC[C@H](N2C(=O)c3ccccc3C2=O)C(=O)N1
Not Active: IC50 [1] | Ki [1] | IC50 [2] | Ki [2] | IC50 [3] | IC50 [4] | IC50 (Neutrophil elastase) | IC50 [5] | Ki [5] | IC50 [6] | Ki [6] | IC50 [7]

N=C(Nc1ccccc1)Nc1ccccc1
Not Active: IC50 [1] | Ki [1] | IC50 [2] | Ki [2] | IC50 [3] | IC50 [4] | IC50 (Neutrophil elastase) | IC50 [5] | Ki [5] | IC50 [6] | Ki [6] | IC50 [7]

C[C@@H](O)[C@H](CO)NC(=O)[C@@H]1CSSC[C@H](NC(=O)[C@H](N)Cc2ccccc2)C(=O)N[C@@H](Cc2ccccc2)C(=O)N[C@H](Cc2c[nH]c3ccccc23)C(=O)N[C@@H](CCCCN)C(=O)N[C@@H]([C@@H](C)O)C(=O)N1 (H-[dF]CF[dW]KTC-{Threoninol(2S,3R)}; disulfide 2-7)
Not Active: IC50 [1] | Ki [1] | IC50 [2] | Ki [2] | IC50 [3] | IC50 [4] | IC50 (Neutrophil elastase) | IC50 [5] | Ki [5] | IC50 [6] | Ki [6] | IC50 [7]

S=C=Nc1cccc2ccccc12 [1-NAPHTHYLISOTHIOCYANATE]
Not Active: IC50 [1] | Ki [1] | IC50 [2] | Ki [2] | IC50 [3] | IC50 [4] | IC50 (Neutrophil elastase) | IC50 [5] | Ki [5] | IC50 [6] | Ki [6] | IC50 [7]

C[C@](O)(CS(=O)(=O)c1ccc(F)cc1)C(=O)Nc1ccc(C#N)c(C(F)(F)F)c1 [(R)-BICALUTAMIDE]
Not Active: IC50 [1] | Ki [1] | IC50 [2] | Ki [2] | IC50 [3] | IC50 [4] | IC50 (Neutrophil elastase) | IC50 [5] | Ki [5] | IC50 [6] | Ki [6] | IC50 [7]

CCCC(=O)Nc1ccc(OCC(O)CNC(C)C)c(C(C)=O)c1 (centres undefined) [ACEBUTOLOL]
Not Active: IC50 [1] | Ki [1] | IC50 [2] | Ki [2] | IC50 [3] | IC50 [4] | IC50 (Neutrophil elastase) | IC50 [5] | Ki [5] | IC50 [6] | Ki [6] | IC50 [7]

CC(=O)Nc1ccc(O)cc1 [ACETAMINOPHEN]
Not Active: IC50 [1] | Ki [1] | IC50 [2] | Ki [2] | IC50 [3] | IC50 [4] | IC50 (Neutrophil elastase) | IC50 [5] | Ki [5] | IC50 [6] | Ki [6] | IC50 [7]

COc1cc2c(c3oc(=O)c4c(c13)CCC4=O)[C@@H]1C=CO[C@@H]1O2 [AFLATOXIN]
Not Active: IC50 [1] | Ki [1] | IC50 [2] | Ki [2] | IC50 [3] | Ki [3] | IC50 [4] | Ki [4] | IC50 (Neutrophil elastase) | Ki (Neutrophil elastase) | IC50 [5] | Ki [5] | IC50 [6] | Ki [6] | IC50 [7] | Ki [7]

N=C(N)NC(=O)c1nc(Cl)c(N)nc1N [AMILORIDE]
Not Active: IC50 [1] | Ki [1] | IC50 [2] | Ki [2] | IC50 [3] | IC50 [4] | IC50 (Neutrophil elastase) | IC50 [5] | Ki [5] | IC50 [6] | Ki [6] | IC50 [7]

Cc1cc(=O)n(-c2ccccc2)n1C [ANTIPYRINE]
Not Active: IC50 [1] | Ki [1] | IC50 [2] | Ki [2] | IC50 [3] | IC50 [4] | IC50 (Neutrophil elastase) | IC50 [5] | Ki [5] | IC50 [6] | Ki [6] | IC50 [7]

CN1C(=O)COc2c(C(=O)NC3CN4CCC3CC4)cc(Cl)cc21 (centres undefined) [AZASETRON]
Not Active: IC50 [1] | Ki [1] | IC50 [2] | Ki [2] | IC50 [3] | IC50 [4] | IC50 (Neutrophil elastase) | IC50 [5] | Ki [5] | IC50 [6] | Ki [6] | IC50 [7]

C[C@H]1C[C@H]2[C@@H]3CCC4=CC(=O)C=C[C@]4(C)[C@@]3(Cl)[C@@H](O)C[C@]2(C)[C@@]1(O)C(=O)CO [BECLOMETHASONE]
Not Active: IC50 [1] | Ki [1] | IC50 [2] | Ki [2] | IC50 [3] | IC50 [4] | IC50 (Neutrophil elastase) | IC50 [5] | Ki [5] | IC50 [6] | Ki [6] | IC50 [7]

O=C1CC2(CCCC2)CC(=O)N1CCCCN1CCN(c2ncccn2)CC1 [BUSPIRONE]
Not Active: IC50 [1] | Ki [1] | IC50 [2] | Ki [2] | IC50 [4] | IC50 (Neutrophil elastase) | IC50 [5] | Ki [5] | IC50 [6] | Ki [6] | IC50 [7]

C/C=C/C[C@@H](C)[C@@H](O)[C@H]1C(=O)N[C@@H](CC)C(=O)N(C)CC(=O)N(C)[C@@H](CC(C)C)C(=O)N[C@@H](C(C)C)C(=O)N(C)[C@@H](CC(C)C)C(=O)N[C@@H](C)C(=O)N[C@H](C)C(=O)N(C)[C@@H](CC(C)C)C(=O)N(C)[C@@H](CC(C)C)C(=O)N(C)[C@@H](C(C)C)C(=O)N1C [CYCLOSPORINE]
Not Active: IC50 [1] | Ki [1] | IC50 [2] | Ki [2] | IC50 [3] | IC50 [4] | IC50 (Neutrophil elastase) | IC50 [6] | Ki [6] | IC50 [7]

COc1ccc2cc([C@H](C)C(=O)O)ccc2c1 [NAPROXEN]
Not Active: IC50 [2] | Ki [2] | IC50 [3] | IC50 [4] | IC50 (Neutrophil elastase) | IC50 [5] | Ki [5] | IC50 [6] | Ki [6] | IC50 [7]

OC(CCN1CCCCC1)(c1ccccc1)C1CCCCC1 (centres undefined) [TRIHEXYPHENIDYL]
Not Active: IC50 [1] | Ki [1] | IC50 [2] | Ki [2] | IC50 [3] | IC50 [4] | IC50 (Neutrophil elastase) | IC50 [5] | Ki [5] | IC50 [6] | Ki [6]
